Consider three molecules from patent publication US8106024B2, “Method of treating cancer with an RPN2 gene expression inhibitor” (Taisho Pharmaceutical Co., Ltd., priority 2006, dated 2012).

The subject of data set [1] is RPN2 gene. The experiment in a line: RPN2 gene expression suppression test in a nude mouse (real-time RT-PCR of tumor). The format is in vivo. As to conditions: 1 nmol siRNA/atelocollagen per tumor + 20 mg/kg docetaxel, tumor collected after 1 day. The method, then: 1×10^7 MCF7-ADR-Luc cells suspended in 100 μl PBS (−) were transplanted into the mammary fat pad of the nude mouse (4 weeks old, scalpel). After 7 days, RPN2 siRNA and DOC were administered. Herein, atelocollagen in the final concentration of 5 mg/ml (w/vol) and RPN2 siRNA in 1 nmol per tumor were mixed, and then 200 μl of atelocollagen/siRNA was administered into the tumor. At the same time, 20 mg/kg of docetaxel was administered into the abdominal cavity. After 1 day, the tumor was collected and the total RNA was isolated, and RPN2 gene expression amount was measured with real-time RT-PCR (SYBR ExScript RT-PCR Kit: TaKaRa, LightCycler Real-Time PCR System: F. Hoffmann-La Roche Ltd.).
The RPN2 gene expression amount was measured in the same method as Test Example 5 except that RPN2 siRNA and DOC were administered at 6 weeks after MCF7-ADR-Luc cells were transplanted into the mammary fat pad of the nude mouse (4 weeks old, scalpel).
(Quantitative PCR measures a nucleic acid by following its amplification.)

For data set [2], the system named is MCF7-ADR-Luc cells. Put plainly: Apoptosis induction test, Caspase-3/7 activity. The conditions noted are these: 3 days. The format is cell-based. The method, then: (§1) A reagent for measurement of apoptosis was added to the plate after the measurement of the luciferase activity in Test Example 1, and the Caspase activity was measured. […] The Caspase activation rate was calculated with the control siRNA as 0%.
After 3 days, Caspase activity was measured in the same way as described in Test Example 2.

The subject of data set [3] is RPN2 gene. Put plainly: RPN2 gene expression suppression test (real-time PCR). As to conditions: MCF7-ADR-Luc, 3 days, atelocollagen transfection array; remaining expression. The format is cell-based. How it is done:
Into the atelocollagen cell transfection array prepared in Test Example 1 (1) were inoculated MCF7-ADR-Luc cells. After 3 days, cDNA was synthesized directly from the cell lysate, and real-time PCR was conducted, to investigate the RPN2 gene expression amount (SuperScript III Platinum CellsDirect Two-Step qRT-PCR: Invitrogen).

A further data set concerns PC-9/CDDP cell. Put plainly: Caspase activity in cisplatin-resistant lung cancer cells. In kind it is cell-based, human. The conditions noted are these: 3 days. How it is done: as §1
To suppress RPN2 gene expression RPN2 siRNA was transduced into PC-9/CDDP cell which is a cell line of human lung cancer ([…], differentiated gland cancer), and resistant to cisplatin (Cis) that is a anti-cancer drug. Then, the cell was cultured for 3 days in the presence of or in the absence of cisplatin (0.3 μM). Then, Caspase activity was measured in the same way as described in Test Example 2. In addition, for comparison, the same test was conducted also for the system to which control siRNA not suppressing any gene expression was introduced.

For data set [4], the system named is MCF7-ADR-Luc cells. The experiment in a line: Tumor growth test in a nude mouse. In kind it is in vivo. The conditions noted are these: 1 nmol siRNA/atelocollagen per tumor intratumoral + 20 mg/kg docetaxel i.p., 7 days after dosing, vs control siRNA. How it is done:
According to the protocol shown in FIG. 6, 1×10^7 MCF7-ADR-Luc cells suspended in 100 μl PBS (−) were transplanted into the mammary fat pad of the nude mouse (4 weeks old, scalpel). After 7 days when the tumor radius reached about 5 mm, siRNA and DOC were administered. Herein, atelocollagen in the final concentration of 5 mg/ml (w/vol) and siRNA in 1 nmol per tumor were mixed, and then 200 μl of atelocollagen (manufactured by KOKEN CO., LTD.)/siRNA was administered into the tumor. At the same time, 20 mg/kg of docetaxel was administered into the abdominal cavity. After 7 days, the tumor radius was measured to compare the tumor volumes.

Another data set has as its system HepG2. The experiment in a line: Cell survival in human liver cancer cells (CellTiter-Glo). In kind it is cell-based. The method, then: HepG2, which is a cell line of human liver cancer, was inoculated into a 96 well plate in 5000/well. […] The control siRNA (dsRNA including a sense chain of Sequence No. 5 and an antisense chain of Sequence No. 6) was introduced as the negative control. At the same time with the siRNA, DOC was added in 1 nM of the final concentration. After the culture for 3 days, in order to determine the cell survival rate in each well, a quantification reagent for the live cells (CellTiter-Glo substrate: Promega KK) was added to each well, and the plate was stirred for 2 minutes, and left for 10 minutes. The luminescence was measured by a luminescence plate reader (ARVO: PerkinElmer).
In general terms: In ATP-based viability assays light output follows the ATP content of the culture.

For data set [5], the system named is MCF7-ADR-Luc cells. Put plainly: Apoptosis induction test in a nude mouse (TUNEL staining). In kind it is in vivo. The conditions noted are these: dosed 6 weeks after transplant; siRNA/atelocollagen intratumoral + 20 mg/kg docetaxel; tumor collected after 4 days. How it is done:
1×10^7 MCF7-ADR-Luc cells suspended in 100 μl PBS (−) were transplanted into the mammary fat pad of the nude mouse (4 weeks old, scalpel). After 6 weeks, siRNA and DOC, or siRNA alone was administered. Atelocollagen in the final concentration of 5 mg/ml (w/vol) and siRNA in 1 nmol per tumor were mixed, and then 200 μl of atelocollagen/siRNA was administered into the tumor. At the same time, 20 mg/kg of docetaxel was administered into the abdominal cavity. After 4 days, the tumor was collected, and subjected to TUNEL staining (In Situ Cell Death Detection Kit: F. Hoffmann-La Roche Ltd.). The nucleus was subjected to counter staining with DAPI (4′,6-diamidino-2-phenylindole).

The test system of data set [6] is MCF7-ADR-Luc cells. The experiment in a line: Apoptosis induction test, Hoechst staining. The format is cell-based. As to conditions: vs control siRNA. How it is done:
Moreover, in addition to the Caspase activity, apoptosis induction was investigated with observation by Hoechst staining (the cells were washed with PBS (−), added with 4% PFA-0.1% Triton X-100-1 mg/ml Hoechst 33342/in PBS (−), and fixed and stained at room temperature for 20 minutes. The cells were washed with PBS (−), and then observed under fluorescence microscope.).

The test system of the next data set is Luciferase gene (GL3). Put plainly: siRNA introduction efficiency (suppression of luciferase activity). In kind it is cell-based. As to conditions: MCF7-ADR-Luc, atelocollagen transfection array. How it is done: Luciferase gene (GL3) was stably transfected into multidrug-resistant MCF7-ADR cells of which the parental Cell line is MCF7 breast cancer cell. The cell line was expressing luciferase and designated as MCF7-ADR-Luc.
The MCF7-ADR-LUC cell obtained in (2) was inoculated into the array prepared in (1) in 4×10^3 cell number/well, and cultured for 3 days in the presence of 1 nM docetaxel (DOC). To the live cells were added luciferin, and from the luminescence value, cell growth inhibition rate and luciferase siRNA introduction efficiency were measured.
Moreover, siRNA introduction efficiency was evaluated with the suppression rate of the luciferase activity by introduction of luciferase siRNA (GL3siRNA: dsRNA including a sense chain of Sequence No. 7 and an antisense chain of Sequence No. 8), separately from siRNA corresponding to each gene. In addition, luciferin (0.5 mM final concentration: Promega KK) was added to the medium, and the luciferase activity was measured immediately by a luminescence plate reader (ARVO: PerkinElmer, Inc.). Introduction of GL3 siRNA suppressed the luciferase activity by 80% in comparison with the control siRNA.

“RPN2 siRNA: dsRNA including a sense chain of Sequence No. 3 and an antisense chain of Sequence No. 4 (sense GGCCACUGUUAAACUAGAACA; antisense UUCUAGUUUAACAGUGGCCUG; listed as RNA, chemistry not given here; listed as Homo sapiens)”: the figures for the “RPN2 gene expression suppressed by, in comparison with control siRNA group” value in the data set on RPN2 gene [1] (dosed 6 weeks after transplant) and in the data set on RPN2 gene [1] (dosed 7 days after transplant) were “about 40%” and “about 20%”, respectively. The Caspase activity entry in the data set with MCF7-ADR-Luc cells [2] (1 nM docetaxel, vs control siRNA) is “induced strongly”. The “Caspase activity (apoptosis)” value in the data set on MCF7-ADR-Luc cells [2] (in the absence of DOC) is given as “apoptosis is induced”; in the data set with PC-9/CDDP cell (cisplatin-treated (0.3 μM, Cis+)), “significant apoptosis was induced”. In addition, the “RPN2 gene expression suppressed to” value in the data set on RPN2 gene [3] is “about 25%”. The “Caspase activity (apoptosis increase)” value in the data set with PC-9/CDDP cell (cisplatin-untreated (Cis−)) is listed as “slight”. For the same molecule, in the data set on MCF7-ADR-Luc cells [4], the tumor volume result is “significant tumor shrinkage”. Besides, the “cancer cell growth suppression (luminescence intensity, RLU)” value is recorded as “showed cancer cell growth suppression effects alone” with HepG2 (HepG2, siRNA alone, Lipofectamine 2000, 3 days) and “potentiating the cancer cell growth suppression effects of DOC” in the data set on HepG2 (HepG2, siRNA with 1 nM DOC, 3 days). Moreover, the “apoptosis cells in tumor (TUNEL staining)” value in the data set on MCF7-ADR-Luc cells [5] is given as “many apoptosis cells were found”. The “nucleus morphology by Hoechst staining (aggregation, fragmentation)” value in the data set with MCF7-ADR-Luc cells [6] is reported as “apoptosis is induced”.

“GL3 siRNA: luciferase siRNA: dsRNA including a sense chain of Sequence No. 7 and an antisense chain of Sequence No. 8 (sense CUUACGCUGAGUACUUCGANN; antisense UCGAAGUACUCAGCGUAAGNN; chemistry not given here; listed as Homo sapiens)”: the “suppression of luciferase activity in comparison with the control siRNA” value in the data set on Luciferase gene (GL3) is 80%.

With `N.N.[Cl][Pt][Cl]` [cisplatin, reference compound], in the data set on PC-9/CDDP cell (control siRNA system, cisplatin 0.3 μM), the “Caspase activity, Cis+ versus Cis−” value is “no difference”.
